Measured values taken from patent US12252708B2, “Living mammalian cells modified with functional modular nanoparticles” (UNM Rainforest Innovations, priority 2018, dated 2025).

System: HeLa cells
Assay: Cytoprotection test to DOX
Format: cell-based
Settings: native HeLa cells and SupraCell-MIL-100(Fe); nearly identical dose response curve; 2 hours
Protocol: Then, the anticancer drug doxorubicin (diameter about 1.6 nm) or cytotoxic silver (Ag) nanocrystals (diameter about 5.0 nm) were added into the culture medium at different concentrations.
Cytoprotection test to DOX. The cytoprotection test was performed on Supracell-MIL-100 (Fe). Briefly, the native HeLa cells and Supracell-MIL-100 (Fe) were seeded on 96-well plate at the density of 200,000 cells/mL. Then different concentration of DOX (0.01, 0.1, 1.0, 10, 20, and 50 μg/ML) was added in the cell culture media under cell culture condition. After incubation for 2 hours, the viability of the cells or SupraCells was measured by CellTiter-Glo® 2.0 Assay.

SMILES: COc1cccc2c1C(=O)c1c(O)c3c(c(O)c1C2=O)C[C@@](O)(C(=O)CO)C[C@@H]3O[C@H]1C[C@H](N)[C@H](O)[C@H](C)O1 [doxorubicin]
- sensitivity of cells to the drug (viability): sensitive
